Literature values as cited in patent EP4570255A1, “SPORICIDAL ANTIMICROBIAL COMPOSITIONS AND USES THEREOF” (Silva, Renata Moisés Iwamizu, priority 2022, dated 2024).
Counter-ions that a name gives are not always drawn.

| Compound | solubility in water |
| --- | --- |
| [H]/N=C(\N/C(=N/[H])NCCCCCCNC(=N)NC(=N)Nc1ccc(Cl)cc1)Nc1ccc(Cl)cc1 [digluconate salt, 1,1'-hexamethylene-bis-(5-(p-chlorophenyl)biguanide)] | about 70% |
| [H]/N=C(\N/C(=N/[H])NCCCCCCNC(=N)NC(=N)Nc1ccc(Cl)cc1)Nc1ccc(Cl)cc1 [diacetate salt, 1,1'-hexamethylene-bis-(5-(p-chlorophenyl)biguanide)] | about 1.8% |
